pIC50: −log10 of the molar value.
How the values were obtained:
[1] = molecular target: T1, ATP-sensitive inward rectifier potassium channel 1 (Homo sapiens, UniProt P48048); assay: Inhibition of human ROMK expressed in HEK293 cells after 30 mins by thallium flux assay; type: cell-based; conditions: for pIC50: read-out: IC50
T1 sequence (P48048 whole entry): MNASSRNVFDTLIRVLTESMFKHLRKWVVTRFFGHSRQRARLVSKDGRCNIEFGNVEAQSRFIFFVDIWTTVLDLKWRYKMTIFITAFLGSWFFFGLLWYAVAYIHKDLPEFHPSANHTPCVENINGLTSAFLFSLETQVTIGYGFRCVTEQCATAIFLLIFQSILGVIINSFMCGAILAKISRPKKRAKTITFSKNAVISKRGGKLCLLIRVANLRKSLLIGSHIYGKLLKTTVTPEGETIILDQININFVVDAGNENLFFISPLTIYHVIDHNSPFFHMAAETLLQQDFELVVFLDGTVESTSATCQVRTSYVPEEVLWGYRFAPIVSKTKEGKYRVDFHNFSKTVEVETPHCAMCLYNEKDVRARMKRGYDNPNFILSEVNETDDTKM

Homo sapiens [2] = species on record: Homo sapiens; assay: Selectivity ratio of IC50 for human ERG expressed in HEK293 cells to IC50 for human ROMK expressed in HEK293 cells; type: cell-based
[3] = molecular target: T2, Voltage-gated inwardly rectifying potassium channel KCNH2 (Homo sapiens, UniProt Q12809)
T2 sequence (Q12809 whole entry): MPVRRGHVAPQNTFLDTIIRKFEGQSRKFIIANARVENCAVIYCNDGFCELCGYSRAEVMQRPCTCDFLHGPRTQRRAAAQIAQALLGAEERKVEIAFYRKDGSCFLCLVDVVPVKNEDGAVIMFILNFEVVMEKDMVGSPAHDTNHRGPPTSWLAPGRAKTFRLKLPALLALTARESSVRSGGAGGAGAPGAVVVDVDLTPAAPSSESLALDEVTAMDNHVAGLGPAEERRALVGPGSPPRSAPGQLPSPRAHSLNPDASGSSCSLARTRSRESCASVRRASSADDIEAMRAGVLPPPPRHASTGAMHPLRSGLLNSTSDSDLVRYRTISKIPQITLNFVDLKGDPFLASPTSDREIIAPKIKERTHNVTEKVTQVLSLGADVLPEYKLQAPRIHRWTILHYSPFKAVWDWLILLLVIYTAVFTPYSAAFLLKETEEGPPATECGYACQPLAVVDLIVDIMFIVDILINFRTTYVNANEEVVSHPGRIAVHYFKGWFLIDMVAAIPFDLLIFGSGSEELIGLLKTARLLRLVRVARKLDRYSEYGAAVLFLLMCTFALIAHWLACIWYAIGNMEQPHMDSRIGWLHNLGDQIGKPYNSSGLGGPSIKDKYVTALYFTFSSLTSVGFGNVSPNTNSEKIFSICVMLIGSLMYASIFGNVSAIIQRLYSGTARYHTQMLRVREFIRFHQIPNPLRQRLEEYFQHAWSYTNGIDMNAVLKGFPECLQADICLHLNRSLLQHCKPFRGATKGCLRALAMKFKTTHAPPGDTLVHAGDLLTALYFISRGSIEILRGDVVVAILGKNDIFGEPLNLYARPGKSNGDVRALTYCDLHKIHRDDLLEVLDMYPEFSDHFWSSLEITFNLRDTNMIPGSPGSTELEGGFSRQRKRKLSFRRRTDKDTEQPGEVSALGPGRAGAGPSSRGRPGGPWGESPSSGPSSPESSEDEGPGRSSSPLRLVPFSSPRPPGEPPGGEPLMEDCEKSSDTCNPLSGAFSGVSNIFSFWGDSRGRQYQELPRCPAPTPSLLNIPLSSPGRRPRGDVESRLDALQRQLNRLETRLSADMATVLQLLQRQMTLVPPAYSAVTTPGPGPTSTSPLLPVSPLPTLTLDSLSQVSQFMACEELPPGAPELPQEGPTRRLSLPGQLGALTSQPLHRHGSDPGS

in vivo [4] = conditions: rat, iv, 0.5 mg/kg
in vivo [5] = conditions: rat, po, 1 mg/kg
[6] = molecular target: T3, ATP-sensitive inward rectifier potassium channel 1 (Rattus norvegicus, UniProt P35560); assay: Inhibition of rat ROMK expressed in HEK293 cells after 30 mins by thallium flux assay; type: cell-based
T3 sequence (P35560 whole entry): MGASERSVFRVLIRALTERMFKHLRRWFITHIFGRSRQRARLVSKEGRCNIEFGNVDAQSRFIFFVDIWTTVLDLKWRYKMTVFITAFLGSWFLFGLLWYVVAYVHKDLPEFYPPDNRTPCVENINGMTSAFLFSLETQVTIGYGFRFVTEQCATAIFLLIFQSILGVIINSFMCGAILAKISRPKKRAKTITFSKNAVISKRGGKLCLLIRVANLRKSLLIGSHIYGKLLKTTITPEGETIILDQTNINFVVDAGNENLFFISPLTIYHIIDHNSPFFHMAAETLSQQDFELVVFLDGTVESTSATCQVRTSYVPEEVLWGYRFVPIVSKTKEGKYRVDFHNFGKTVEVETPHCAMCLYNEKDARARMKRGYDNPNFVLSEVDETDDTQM

[7] = molecular target: T1, ATP-sensitive inward rectifier potassium channel 1; assay: Inhibition of human ROMK expressed in CHO cells by electrophysiology method; type: cell-based
Rattus norvegicus [8] = species on record: Rattus norvegicus; conditions: in vivo, iv, 0.5 mg/kg
[9] = Drug uptake in plasma of rat spontaneous hypertensive model at 3 mg/kg, po measured after 3 days; type: ADME, organism-based; conditions: spontaneously hypertensive rat
Rattus norvegicus [10] = assay: Antihypertensive activity in rat spontaneous hypertensive model assessed as change in systolic blood pressure at 3 mg/kg, po measured after 3 days; type: functional
in vivo [11] = conditions: rat
Rattus norvegicus [12] = species on record: Rattus norvegicus; conditions: in vivo, po, 1 mg/kg
[13] = Drug excretion in urine of rat spontaneous hypertensive model at 3 mg/kg, po measured after 24 hrs; type: ADME, organism-based; conditions: spontaneously hypertensive rat, read-out: Drug excretion
[14] = Drug excretion in urine of rat spontaneous hypertensive model at 3 mg/kg, po measured after 4 hrs; type: ADME, organism-based; conditions: spontaneously hypertensive rat, read-out: Drug excretion
[15] = Oral bioavailability in dog at 1 mg/kg; type: ADME, organism-based, Canis lupus familiaris; conditions: in vivo
[16] = AUC (0 to t) in dog at 1 mg/kg, po; type: ADME, organism-based, Canis lupus familiaris; conditions: in vivo
[17] = Half life in rhesus monkey at 0.5 mg/kg, iv; type: ADME, organism-based, Macaca mulatta; conditions: in vivo
[18] = molecular target: T2, Voltage-gated inwardly rectifying potassium channel KCNH2; assay: Inhibition of human ERG by electrophysiology method
[19] = Half life in dog at 1 mg/kg, po or 0.5 mg/kg, iv; type: ADME, organism-based, Canis lupus familiaris; conditions: in vivo
Homo sapiens [20] = species on record: Homo sapiens; assay: Selectivity ratio of IC50 for human ERG to IC50 for human ROMK expressed in CHO cells by electrophysiology method; type: cell-based
Rhesus monkey = assay: AUC (0 to t) in rhesus monkey at 0.5 mg/kg, iv; type: ADME, organism-based, Macaca mulatta; conditions: in vivo
[21] = Volume of distribution at steady state in dog at 1 mg/kg, po or 0.5 mg/kg, iv; type: ADME, organism-based, Canis lupus familiaris; conditions: in vivo, read-out: Vdss
[22] = Volume of distribution at steady state in rhesus monkey at 0.5 mg/kg, iv; type: ADME, organism-based, Macaca mulatta; conditions: in vivo, read-out: Vdss
[23] = Clearance in dog at 1 mg/kg, po or 0.5 mg/kg, iv; type: ADME, organism-based, Canis lupus familiaris; conditions: in vivo
in vivo [24] = conditions: rat, po, 1 mg/kg; remark: listed apart in the source
Rattus norvegicus [25] = assay: Antihypertensive activity in rat spontaneous hypertensive model assessed as change in systolic blood pressure at 25 mg/kg, po measured after 3 days; type: functional
[26] = Half life in dog at 0.5 mg/kg, iv; type: ADME, organism-based, Canis lupus familiaris; conditions: in vivo
Canis familiaris = assay: AUC (0 to t) in dog at 0.5 mg/kg, iv; type: ADME, organism-based, Canis lupus familiaris; conditions: in vivo
[27] = Volume of distribution at steady state in dog at 0.5 mg/kg, iv; type: ADME, organism-based, Canis lupus familiaris; conditions: in vivo, read-out: Vdss

## Cc1c([C@@H](O)CN2CCC3(CC2)CCN(c2cncc(C#N)c2)C3)ccc2c1COC2=O
[1]
  pIC50: 8.00

## Cc1c([C@@H](O)CN2CCC3(CC2)CC(=O)N(c2cncc(C#N)c2)C3)ccc2c1COC2=O
Homo sapiens [2]
  Ratio IC50: 180
[3]
  pIC50: 5.74
[1]
  pIC50: 8.00

## Cc1c([C@@H](O)CN2CCC3(CC2)CCN(c2ccc(S(C)(=O)=O)nc2)C3)ccc2c1COC2=O
In vivo [4]
  Vd: 2.8 L/kg
In vivo [5]
  bioavailability: 96%
[6]
  pIC50: 6.62
[7]
  pIC50: 7.30
Rattus norvegicus [8]
  clearance: 23 mL/min/kg
[9]
  concentration at 72 h: 390 nM
Rattus norvegicus [10]
  Activity: 0.1 mmHg
[1]
  pIC50: 6.65
In vivo [11]
  half-life: 2 h
Rattus norvegicus [12]
  AUC/dose: 0.7 µM·kg·h/mg
[13]
  concentration at 24 h: 21200 nM
[14]
  concentration at 4 h: 26600 nM

## Cc1c([C@@H](O)CN2CCC3(CC2)CCN(c2ccc(C#N)nc2)C3)ccc2c1COC2=O
Homo sapiens [2]
  Ratio IC50: 13
[3]
  pIC50: 5.92

## Cc1c([C@@H](O)CN2CCC3(CC2)CC(=O)N(c2ccc(C#N)cn2)C3)ccc2c1COC2=O
Homo sapiens [2]
  Ratio IC50: 180
[3]
  pIC50: 5.74
[1]
  pIC50: 8.00

## COc1ccc(N2CCC3(CCN(C[C@H](O)c4ccc5c(c4C)COC5=O)CC3)C2)cn1
Homo sapiens [2]
  Ratio IC50: 303
[3]
  pIC50: 5.48
[1]
  pIC50: 6.00

## Cc1c([C@@H](O)CN2CCC3(CC2)CC(=O)N(c2ccc(S(C)(=O)=O)nc2)C3)ccc2c1COC2=O
[3]
  pIC50: < 4.22

## Cc1c([C@@H](O)CN2CCC3(CC2)CCN(c2ccc(C(C)(C)O)nc2)C3)ccc2c1COC2=O
[3]
  pIC50: 4.54
[1]; hek293
  IC50: Not Active

## Cc1c([C@@H](O)CN2CCC3(CC2)CCN(c2ccc([S+](C)[O-])nc2)C3)ccc2c1COC2=O (some centres undefined)
[1]
  pIC50: 5.19

## Cc1c([C@@H](O)CN2CCC3(CC2)CCN(c2cnc(S(C)(=O)=O)cn2)C3)ccc2c1COC2=O
In vivo [4]
  Vd: 5.6 L/kg
In vivo [5]
  bioavailability: 37%
[6]
  pIC50: 7.40
[7]
  pIC50: 7.43
Rattus norvegicus [8]
  clearance: 37 mL/min/kg
[15]
  bioavailability: 67%
[16]
  AUC(0-t): 0.75 µM·h
[17]
  half-life: 1.8 h
[18]
  pIC50: 4.64
[9]
  concentration at 72 h: 78 nM
[19]
  half-life: 8.6 h
Homo sapiens [20]
  Ratio IC50: 614
Rhesus monkey
  AUCt: 0.61 µM·h
Rattus norvegicus [10]
  Activity: -19.9 mmHg
Homo sapiens [2]
  Ratio IC50: 202
[3]
  pIC50: 5.05
[21]
  Vd: 17.8 L/kg
[22]
  Vd: 7 L/kg
In vivo [11]
  half-life: 2.1 h
Rattus norvegicus [12]
  AUC/dose: 0.4 µM·kg·h/mg
[23]
  clearance: 42 mL/min/kg

## Cc1c([C@@H](O)CN2CCC3(CC2)CCN(c2ccc(C#N)cn2)CC3)ccc2c1COC2=O
[1]
  pIC50: 7.33

## Cc1c([C@@H](O)CN2CCC3(CC2)CCN(c2ccc(C#N)cn2)C3)ccc2c1COC2=O
In vivo [24]
  fraction unbound: 0.27
In vivo [4]
  Vd: 4.7 L/kg
In vivo [5]
  bioavailability: 100%
Rattus norvegicus [8]
  clearance: 19.3 mL/min/kg
In vivo [11]
  half-life: 3 h
Rattus norvegicus [12]
  AUC/dose: 2 µM·kg·h/mg

## NS(=O)(=O)c1cc2c(cc1Cl)NCNS2(=O)=O [HYDROCHLOROTHIAZIDE]
Rattus norvegicus [25]
  Activity: -10.5 mmHg

## Cc1c([C@@H](O)CN2CCC3(CC2)CC(=O)N(c2cnc(S(C)(=O)=O)cn2)C3)ccc2c1COC2=O
In vivo [4]
  Vd: 3.8 L/kg
In vivo [5]
  bioavailability: 46%
[6]
  pIC50: 7.22
[7]
  pIC50: 7.47
Rattus norvegicus [8]
  clearance: 30 mL/min/kg
[9]
  concentration at 72 h: 232 nM
Rattus norvegicus [10]
  Activity: -16 mmHg
In vivo [11]
  half-life: 2.4 h
Rattus norvegicus [12]
  AUC/dose: 0.5 µM·kg·h/mg

## Cc1c([C@@H](O)CN2CCC3(CC2)CC(=O)N(c2ccc(S(C)(=O)=O)cn2)C3)ccc2c1COC2=O
In vivo [4]
  Vd: 4.3 L/kg
In vivo [5]
  bioavailability: 48%
[6]
  pIC50: 7.40
[7]
  pIC50: 7.37
Rattus norvegicus [8]
  clearance: 34 mL/min/kg
[18]
  pIC50: 4.62
[9]
  concentration at 72 h: 220 nM
Homo sapiens [20]
  Ratio IC50: 558
Rattus norvegicus [10]
  Activity: -15.5 mmHg
Homo sapiens [2]
  Ratio IC50: 328
[3]
  pIC50: 4.76
In vivo [11]
  half-life: 2.1 h
Rattus norvegicus [12]
  AUC/dose: 0.5 µM·kg·h/mg

## Cc1c([C@@H](O)CN2CCC3(CC2)CCN(c2ccc(S(C)(=O)=O)cn2)C3)ccc2c1COC2=O
In vivo [4]
  Vd: 3.5 L/kg
In vivo [5]
  bioavailability: 51%
[6]
  pIC50: 7.22
[7]
  pIC50: 7.54
Rattus norvegicus [8]
  clearance: 24 mL/min/kg
[26]
  half-life: 1.7 h
[9]
  concentration at 72 h: 162 nM
Canis familiaris
  AUCt: 0.66 µM·h
[27]
  Vd: 6.9 L/kg
Rattus norvegicus [10]
  Activity: -20.3 mmHg
In vivo [11]
  half-life: 1.8 h
Rattus norvegicus [12]
  AUC/dose: 0.7 µM·kg·h/mg

## Cc1nc(N2CCC3(CCN(C[C@H](O)c4ccc5c(c4C)COC5=O)CC3)C2)ccc1S(C)(=O)=O
Homo sapiens [2]
  Ratio IC50: 101
[3]
  pIC50: 5.10

## CSc1ccc(N2CCC3(CCN(C[C@H](O)c4ccc5c(c4C)COC5=O)CC3)C2)cn1
[1]
  pIC50: 6.05
